The values that follow are results of earlier work, collected in US20210393559A1, “Compositions and Methods of Use of Beta-Hydroxy-Beta-methylbutyrate (HMB) for Improving Muscle Mass, Strength and Muscular Function Without Exercise” (Metabolic Technologies, LLC, priority 2020, published 2021).

As usually defined, the Km is the substrate concentration at which the rate is half of its maximum.

Data set [1] addresses T1, 1-alpha, 25-Vitamin D hydroxylase (Homo sapiens, UniProt O15528).
T1 sequence (O15528 1-508): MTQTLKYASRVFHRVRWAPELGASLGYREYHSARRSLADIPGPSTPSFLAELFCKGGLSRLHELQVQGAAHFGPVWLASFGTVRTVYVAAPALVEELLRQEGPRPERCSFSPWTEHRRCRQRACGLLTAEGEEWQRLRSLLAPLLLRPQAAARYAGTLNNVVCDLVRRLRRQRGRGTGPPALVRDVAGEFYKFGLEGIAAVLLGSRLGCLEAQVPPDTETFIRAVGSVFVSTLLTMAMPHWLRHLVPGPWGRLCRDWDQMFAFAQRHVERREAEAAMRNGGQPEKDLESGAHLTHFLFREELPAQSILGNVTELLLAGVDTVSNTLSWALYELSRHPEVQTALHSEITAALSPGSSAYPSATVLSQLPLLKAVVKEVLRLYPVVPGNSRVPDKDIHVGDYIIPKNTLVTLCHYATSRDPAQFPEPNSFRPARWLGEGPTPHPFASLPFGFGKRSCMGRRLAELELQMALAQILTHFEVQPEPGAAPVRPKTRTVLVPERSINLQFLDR
Particulars: human vascular smooth muscle.

For data set [2] the following is noted: after HMB is fed.
For data set [3] the following is noted: healthy young or old adults.

As for `C=C1CC[C@H](O)C/C1=C/C=C1\CCC[C@]2(C)[C@@H]([C@H](C)CCCC(C)(C)O)CC[C@@H]12` [25OH-VitD3], in data set [1], the Km is recorded as 25 ng/mL. With β-hydroxy-β-methylbutyrate [HMB], the “loss of HMB to urine” value in data set [2] is 20-50%. Also, the side effects entry in data set [3] is given as “no side effects”.
